Patent EP0092073A1, “Magnesium salt of chenodeoxycholic acid and ursodeoxycholic acid, the process for its preparation, and therapeutic compositions which contain it as active principle” (SCHWARZ ITALIA S.p.A., priority 1982, dated 1983)

What was measured:
rat = assay: Acute lethality and toxicity, oral administration (gastric probe); type: in vivo; parameters: key to Toxic symptomatology Type: NN = no symptomatology; D = depression; details: Rat M; for % mortality at following times after administration 24 h / % mortality at following times after administration 7 days / Toxic symptomatology Latency / Toxic symptomatology Type: oral
Protocol: (§1) Unless otherwise specified, the research was carried out using: a) Mg-UCD capsules as such; b) the powdered contents of Mg-UCD capsules; CDCA (chenodeoxycholic acid) and UDCA (ursodeoxycholic acid) as pure substance which in all cases was partly dissolved and partly suspended under warm conditions (T = 30°C) in 10% gum arabic mucilage (so as to administer 10-40 ml of liquid per kg orally). In certain cases, namely in the experiments involving parenteral administration, the active principle of Mg-UCD, the chenodeoxycholic acid and ursodeoxycholic acid were dissolved in distilled water of slightly alkaline pH (5-10 ml/kg).
(§2) The generally acute lethality, toxicity and tolerability were determined by oral administration of the Mg-UCD (by gastric probe) in the Mus musculus, rat and dog. Animals of both sexes were used, none of which were pregnant. They were fasted for about 12 hours before treatment (but allowing them free access to water). The investigations were carried out using the Mg-UCD in powder form. Comparative investigations were carried out on the rat and Mus musculus using the active principle by endoperitoneal administration, and chenodeoxycholic acid and ursodeoxycholic acid by oral administration (using a gastric probe). Each dose was administered to 20 rats or Mus musculus (10 male and 10 female) and to eight dogs (4 male and 4 female). The animals were observed attentively during the 7 days following administration, and any lethality, toxic symptoms, disturbances, functional variations determinable with the eye, behaviour etc. were noted.
(§3) The LD50 was determined 7 days after administration using the probit method.

Mus musculus = assay: as above; type: in vivo; parameters: key to Toxic symptomatology Type: NN = no symptomatology; D = depression; details: for % mortality at following times after administration 24 h / % mortality at following times after administration 7 days / Toxic symptomatology Type / Toxic symptomatology Latency: oral; for LD50 (mg/kg with reliability limits) 7 days after treatment: po, probit method
Protocol: as §1, §2, §3

[1] = M. musculus F, 250 mg/kg (60 Dts/kg)
[2] = M. musculus F, 2500 mg/kg (600 Dts/kg)
[3] = M. musculus F, 5000 mg/kg (1200 Dts/kg)
[4] = M. musculus F, 10000 mg/kg (2400 Dts/kg)
[5] = M. musculus M, 250 mg/kg (60 Dts/kg)
[6] = M. musculus M, 2500 mg/kg (600 Dts/kg)
[7] = M. musculus M, 5000 mg/kg (1200 Dts/kg)
[8] = M. musculus M, 10000 mg/kg (2400 Dts/kg)

double magnesium salt of chenodeoxycholic acid and ursodeoxycholic acid [Mg-UCD]
% mortality at following times after administration 24 h (rat; 2500 mg/kg (600 Dts/kg)): 0%
% mortality at following times after administration 7 days (rat; 2500 mg/kg (600 Dts/kg)): 0%
Toxic symptomatology Latency (rat; 2500 mg/kg (600 Dts/kg)): 5-10 min
Toxic symptomatology Type (rat; 2500 mg/kg (600 Dts/kg)): D
% mortality at following times after administration 24 h (rat; 5000 mg/kg (1200 Dts/kg)): 0%
% mortality at following times after administration 7 days (rat; 5000 mg/kg (1200 Dts/kg)): 0%
Toxic symptomatology Latency (rat; 5000 mg/kg (1200 Dts/kg)): 5-10 min
Toxic symptomatology Type (rat; 5000 mg/kg (1200 Dts/kg)): D
% mortality at following times after administration 24 h (rat; 10000 mg/kg (2400 Dts/kg)): 10%
% mortality at following times after administration 7 days (rat; 10000 mg/kg (2400 Dts/kg)): 10%
Toxic symptomatology Latency (rat; 10000 mg/kg (2400 Dts/kg)): 5-10 min
Toxic symptomatology Type (rat; 10000 mg/kg (2400 Dts/kg)): D
LD50 (mg/kg with reliability limits) 7 days after treatment (rat; po, probit method): 14011(10884-18033) mg/kg
% mortality at following times after administration 24 h (Mus musculus; [1]): 0%
% mortality at following times after administration 7 days (Mus musculus; [1]): 0%
Toxic symptomatology Type (Mus musculus; [1]): NN
% mortality at following times after administration 24 h (Mus musculus; [2]): 0%
% mortality at following times after administration 7 days (Mus musculus; [2]): 0%
Toxic symptomatology Latency (Mus musculus; [2]): 5-10 min
Toxic symptomatology Type (Mus musculus; [2]): D
% mortality at following times after administration 24 h (Mus musculus; [3]): 0%
% mortality at following times after administration 7 days (Mus musculus; [3]): 0%
Toxic symptomatology Latency (Mus musculus; [3]): 5-10 min
Toxic symptomatology Type (Mus musculus; [3]): D
% mortality at following times after administration 24 h (Mus musculus; [4]): 10%
% mortality at following times after administration 7 days (Mus musculus; [4]): 10%
Toxic symptomatology Latency (Mus musculus; [4]): 5-10 min
Toxic symptomatology Type (Mus musculus; [4]): D
LD50 (mg/kg with reliability limits) 7 days after treatment (Mus musculus; M. musculus F): 14011 (10884-18033) mg/kg
% mortality at following times after administration 24 h (Mus musculus; [5]): 0%
% mortality at following times after administration 7 days (Mus musculus; [5]): 0%
Toxic symptomatology Type (Mus musculus; [5]): NN
% mortality at following times after administration 24 h (Mus musculus; [6]): 0%
% mortality at following times after administration 7 days (Mus musculus; [6]): 0%
Toxic symptomatology Latency (Mus musculus; [6]): 5-10 min
Toxic symptomatology Type (Mus musculus; [6]): D
% mortality at following times after administration 24 h (Mus musculus; [7]): 0%
% mortality at following times after administration 7 days (Mus musculus; [7]): 0%
Toxic symptomatology Latency (Mus musculus; [7]): 5-10 min
Toxic symptomatology Type (Mus musculus; [7]): D
% mortality at following times after administration 24 h (Mus musculus; [8]): 10%
% mortality at following times after administration 7 days (Mus musculus; [8]): 10%
Toxic symptomatology Latency (Mus musculus; [8]): 5-10 min
Toxic symptomatology Type (Mus musculus; [8]): D
LD50 (mg/kg with reliability limits) 7 days after treatment (Mus musculus; M. musculus M): 13100 (10515-16319) mg/kg
